Laboratory results taken from ChEMBL document CHEMBL4118041, “Targeted Dereplication of Microbial Natural Products by High-Resolution MS and Predicted LC Retention Time” (2017).

System: A2058
Test: Cytotoxicity against human A2058 cells assessed as survival at 250 uM relative to control
Assay type: functional
Details: read-out: Survival

## CC1=C(NC(=O)CC(C)C)C(=O)N(CCCC(=O)O)C1=O
  viability at 250 µM: 100%
